In paper PMC6277434, “Discovery of a potent HMG-CoA reductase degrader that eliminates statin-induced reductase accumulation and lowers cholesterol” (Nature Communications, 2018):

Experiments:
HMGCR (TM1-8)-GFP [1] = biological target: T1, HMGCR (TM1-8)-GFP (Cricetulus griseus, UniProt P00347); experiment: HMGCR (TM1-8)-GFP fluorescent assay (high-content imaging) in CHG cells; conditions: read-out: Mean (HMGCR (TM1-8)-GFP signal relative to 0 μM = 100)
T1 sequence (P00347 1-346): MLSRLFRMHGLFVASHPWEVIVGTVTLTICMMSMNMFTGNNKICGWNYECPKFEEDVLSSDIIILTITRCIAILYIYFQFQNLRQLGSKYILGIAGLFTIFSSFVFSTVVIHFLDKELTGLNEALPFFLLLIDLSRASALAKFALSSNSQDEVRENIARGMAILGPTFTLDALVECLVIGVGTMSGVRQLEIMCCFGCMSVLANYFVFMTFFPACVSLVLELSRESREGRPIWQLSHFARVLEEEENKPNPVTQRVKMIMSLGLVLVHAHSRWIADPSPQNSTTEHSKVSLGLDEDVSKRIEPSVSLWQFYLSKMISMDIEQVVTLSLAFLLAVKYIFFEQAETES

HMGCR (TM1-8)-GFP [2] = biological target: T1, HMGCR (TM1-8)-GFP

Structure (SMILES) | remaining activity at 0.156 µM (HMGCR (TM1-8)-GFP [1]) [%] | remaining activity at 0.313 µM (HMGCR (TM1-8)-GFP [1]) [%] | remaining activity at 0.625 µM (HMGCR (TM1-8)-GFP [1]) [%] | remaining activity at 1.25 µM (HMGCR (TM1-8)-GFP [1]) [%] | remaining activity at 2.5 µM (HMGCR (TM1-8)-GFP [1]) [%] | remaining activity at 5 µM (HMGCR (TM1-8)-GFP [1]) [%] | remaining activity at 10 µM (HMGCR (TM1-8)-GFP [1]) [%] | DC50 (HMGCR (TM1-8)-GFP [2]) [µM]
CCC(O)CC[C@@H](C)C1CCC2C3C(CC[C@@]21C)[C@@]1(C)CC[C@H](O)C(C)(C)C1=C[C@@H]3O (stereo partly shown) [Compound 64] | 100 | 104 | 88.2 | 68.2 | 52.2 | 35.6 | 27 | 3.06
C=CCC(O)CC[C@@H](C)C1CCC2C3C(CC[C@@]21C)[C@@]1(C)CC[C@H](O)C(C)(C)C1=C[C@@H]3O (stereo partly shown) [Compound 65] | 108 | 103 | 93.6 | 78.4 | 40.4 | 22.1 | 14 | 2.33
COC(=O)CCC[C@@H](C)C1CCC2C3C(CC[C@@]21C)[C@@]1(C)CC[C@H](O)C(C)(C)C1=C[C@@H]3O (stereo partly shown) [Compound 72] | 109 | 104 | 96.6 | 89.7 | 77.5 | 56.3 | 40.9 | 6.77
C[C@H](CCCC(=O)O)C1CCC2C3C(CC[C@@]21C)[C@@]1(C)CC[C@H](O)C(C)(C)C1=C[C@@H]3O (stereo partly shown) [Compound 73] | 97 | 97.9 | 97.7 | 98.1 | 92.6 | 87.2 | 81.4 | 60.6
C[C@H](CCCCO)C1CCC2C3C(CC[C@@]21C)[C@@]1(C)CC[C@H](O)C(C)(C)C1=C[C@@H]3O (stereo partly shown) [Compound 74] | 96.8 | 94.2 | 92.9 | 83.2 | 62.6 | 44.4 | 33 | 4.52
COCCCC[C@@H](C)C1CCC2C3C(CC[C@@]21C)[C@@]1(C)CC[C@H](O)C(C)(C)C1=C[C@@H]3O (stereo partly shown) [Compound 78] | 105 | 98 | 81.1 | 60.7 | 36.9 | 21.4 | 15.7 | 1.85
C[C@H](CCCC(C)(C)O)C1CCC2C3C(CC[C@@]21C)[C@@]1(C)CC[C@H](O)C(C)(C)C1=C[C@@H]3O (stereo partly shown) [Compound 79] | 87.9 | 77.2 | 59.3 | 38.6 | 23.5 | 16.1 | 12.2 | 0.64
CCC(O)(CC)CCC[C@@H](C)C1CCC2C3C(CC[C@@]21C)[C@@]1(C)CC[C@H](O)C(C)(C)C1=C[C@@H]3O (stereo partly shown) [Compound 80] | 85.3 | 75.8 | 58.1 | 33.7 | 18.3 | 12.1 | 10.3 | 0.55
CC(O)CCC[C@@H](C)C1CCC2C3C(CC[C@@]21C)[C@@]1(C)CC[C@H](O)C(C)(C)C1=C[C@@H]3O (stereo partly shown) [Compound 86] | 96.6 | 88.8 | 78.7 | 64.4 | 44.4 | 28.4 | 19.7 | 2.17
CCC(O)CCC[C@@H](C)C1CCC2C3C(CC[C@@]21C)[C@@]1(C)CC[C@H](O)C(C)(C)C1=C[C@@H]3O (stereo partly shown) [Compound 87] | 91.3 | 78.3 | 62.1 | 43.1 | 26.7 | 20.1 | 18.9 | 1.08
C=CCC(O)CCC[C@@H](C)C1CCC2C3C(CC[C@@]21C)[C@@]1(C)CC[C@H](O)C(C)(C)C1=C[C@@H]3O (stereo partly shown) [Compound 88] | 82.3 | 75.6 | 67.9 | 37.1 | 17.6 | 12 | 16.6 | 0.91
C[C@H](CCCCC(=O)O)C1CCC2C3C(CC[C@@]21C)[C@@]1(C)CC[C@H](O)C(C)(C)C1=C[C@@H]3O (stereo partly shown) [Compound 92] | 104 | 98.4 | 98.7 | 96.3 | 87 | 71.8 | 58 | 12.3
C[C@H](CCCCC(C)(C)O)C1CCC2C3C(CC[C@@]21C)[C@@]1(C)CC[C@H](O)C(C)(C)C1=C[C@@H]3O (stereo partly shown) [Compound 100] | 78.6 | 69.4 | 51.6 | 33.5 | 21.6 | 14.8 | 12.4 | 0.51
CCC(O)(CC)CCCC[C@@H](C)C1CCC2C3C(CC[C@@]21C)[C@@]1(C)CC[C@H](O)C(C)(C)C1=C[C@@H]3O (stereo partly shown) [Compound 101] | 86.6 | 74 | 52.3 | 35.6 | 22.8 | 15.2 | 15.2 | 0.59
C=CCC(O)(CC=C)CCCC[C@@H](C)C1CCC2C3C(CC[C@@]21C)[C@@]1(C)CC[C@H](O)C(C)(C)C1=C[C@@H]3O (stereo partly shown) [Compound 102] | 108 | 104 | 86.9 | 56.5 | 37.2 | 31.7 | 31.8 | 1.92
CC(O)CCCC[C@@H](C)C1CCC2C3C(CC[C@@]21C)[C@@]1(C)CC[C@H](O)C(C)(C)C1=C[C@@H]3O (stereo partly shown) [Compound 107] | 90.7 | 83.1 | 72.6 | 51.8 | 26.9 | 17.1 | 13.1 | 1.29
CCC(O)CCCC[C@@H](C)C1CCC2C3C(CC[C@@]21C)[C@@]1(C)CC[C@H](O)C(C)(C)C1=C[C@@H]3O (stereo partly shown) [Compound 108] | 90.7 | 77.2 | 56.5 | 39.2 | 29.4 | 25.5 | 18.6 | 1.03
C=CCC(O)CCCC[C@@H](C)C1CCC2C3C(CC[C@@]21C)[C@@]1(C)CC[C@H](O)C(C)(C)C1=C[C@@H]3O (stereo partly shown) [Compound 109] | 91 | 76.5 | 54.8 | 36.4 | 23.5 | 18.8 | 25.2 | 0.91
C[C@H](CCCCCCO)C1CCC2C3C(CC[C@@]21C)[C@@]1(C)CC[C@H](O)C(C)(C)C1=C[C@@H]3O (stereo partly shown) [Compound 113] | 94.7 | 91.3 | 72.7 | 57.4 | 35.8 | 22 | 24.1 | 1.72
C[C@H](CCCCCC(C)(C)O)C1CCC2C3C(CC[C@@]21C)[C@@]1(C)CC[C@H](O)C(C)(C)C1=C[C@@H]3O (stereo partly shown) [Compound 117] | 92 | 72.4 | 47.7 | 29.5 | 20.4 | 16.1 | 20.4 | 0.71
CCC(O)(CC)CCCCC[C@@H](C)C1CCC2C3C(CC[C@@]21C)[C@@]1(C)CC[C@H](O)C(C)(C)C1=C[C@@H]3O (stereo partly shown) [Compound 118] | 93.8 | 76.6 | 55.5 | 38.3 | 26.4 | 20.4 | 21.8 | 0.97
C=CCC(O)(CC=C)CCCCC[C@@H](C)C1CCC2C3C(CC[C@@]21C)[C@@]1(C)CC[C@H](O)C(C)(C)C1=C[C@@H]3O (stereo partly shown) [Compound 119] | 92.9 | 96 | 91.6 | 81.1 | 62.7 | 42.5 | 28.9 | 4.13
CC(O)CCCCC[C@@H](C)C1CCC2C3C(CC[C@@]21C)[C@@]1(C)CC[C@H](O)C(C)(C)C1=C[C@@H]3O (stereo partly shown) [Compound 124] | 88 | 78.3 | 62.2 | 38.2 | 19.5 | 14.7 | 21.8 | 0.92
